Results as given in a melting point compilation (Tetko et al.; mined from patent text by program, amines drawn as free bases though some values may be those of a salt).

In the case of O=C(CCl)c1ccc(Oc2ccc(C(=O)CCl)cc2)cc1, the melting point is reported as 129 to 130 °C.
Compound O=c1c2c(c1=O)N(CCCP(=O)(O)O)CCCN2 has a melting point of 244 to 248 °C.
For CC(=O)Nc1nc(CCc2ccc(CN3CCN(C(=O)OC(C)(C)C)CC3)cc2)cs1, the melting point was 140 to 141 °C.
O=c1[nH]c(=O)n2c(c1-c1ccccc1)SC=CC2 gave a melting point of 286 to 290 °C.
In the case of CC(C)c1n[nH]c2c(NCc3ccco3)ncnc12, the melting point is reported as 179 to 182 °C.
Compound COc1ccc(C(CSc2ccccc2N)C(=O)O)cc1OC (stereo not drawn) has a melting point of 162 °C.
COC(=O)c1c(O)cc(C(F)(F)F)nc1C(F)(F)F gave a melting point of 62 to 75 °C.
For O=C(/C=C/c1cccnc1)NCCc1cccc(O)c1, the melting point was 163 to 164 °C.
Compound CC(=O)C(C(C)=O)=C1NC(=O)N(Cc2ccccc2)C1=O has a melting point of 211 to 212 °C.
Compound CCCCn1c(NCCC)nc2ccc(Br)cc2c1=O has a melting point of 71 to 73 °C.
For O=C(NN1CCN(Cc2c[nH]c3ccccc23)CC1)c1ccccc1, the melting point was 176 to 178 °C.
CC(C(=O)CO)c1ccc(-c2ccccc2)c(F)c1 (stereo not drawn) showed a melting point of 63 to 64.5 °C.
Work on COc1ccc2cc(N)cc(C)c2n1 yielded a melting point of 115 to 117 °C.
O=c1cc(O)cc(CBr)o1 showed a melting point of 77 to 78 °C.
With N#Cc1cccc(NC(=O)n2ccnc2)c1 the melting point was 174 to 176 °C.
With COc1cc(Cl)c2c(=O)c(N3CCCCC3)coc2c1 the melting point was 122 to 125 °C.
With CC(C)(C)C(O)C(NC(=O)c1ccccc1)n1ccnc1 (stereo not drawn) the melting point was 143 °C.
In the case of CC(C)NCC(O)COc1ccccc1-c1ccc(=O)[nH]n1 (stereo not drawn), the melting point is reported as 150 to 152 °C.
For CC(=O)Nc1ccc(OC(F)(F)F)cc1Br, the melting point was 123 °C.
With NS(=O)(=O)c1ccc(-c2cc(F)c(F)cc2-c2ccc(F)cc2)cc1 the melting point was 190 to 192 °C.
Compound O=C(O)COc1cccc(COC(=O)N(c2ccccc2)c2ccccc2)c1 has a melting point of 142 to 144 °C.
With N#CC1=C(c2ccc(Br)s2)Nc2n[nH]cc2C1c1cccc2nonc12 (stereo not drawn) the melting point was 208 °C.
Compound CCC(CN1CCCCC1)C(=O)c1cc(-c2ccccc2)no1 (stereo not drawn) has a melting point of 83 to 84 °C.
Compound CON=C(C)c1ccccc1NC(C(N)=O)c1c(Cl)cccc1Cl (stereo not drawn) has a melting point of 206 °C.
Work on Cc1ccc2sc(C(=O)O)cc(=O)c2c1 yielded a melting point of 236 to 237 °C.
With COC(=O)C1=C(C)NC(C)=C(C(=O)OCOC(=O)C(C)(C)C)C1c1cccc(Cl)c1Cl (single isomer, unassigned; (+)) the melting point was 154 to 155 °C.
Compound CS(=O)(=O)N(CCCl)N(S(C)(=O)=O)S(C)(=O)=O has a melting point of 154 to 155 °C.
Compound Nc1ccnc(CSCCO)n1 has a melting point of 131 to 134 °C.
In the case of CCCCCCCCCCCCCCCCOC(=O)c1cccc(N)c1, the melting point is reported as 52 to 53 °C.
CC(O)Cc1c(O)c2cccnc2n(-c2ccc(Cl)c(Cl)c2)c1=O (stereo not drawn) gave a melting point of 232 to 234 °C.
With CN(c1ncc(Br)cn1)[C@H]1CC[C@H](C#CCO)CC1 the melting point was 156 to 157 °C.
O=C(OCc1ccccc1)n1ccc2c(O)cccc21 gave a melting point of 118 to 120 °C.
In the case of O=C1c2cc3c(cc2CCC1NC(=O)C(F)(F)F)CCO3 (stereo not drawn), the melting point is reported as 208 °C.
Work on Cc1c(C2CCC(c3ccccc3)(N(C)C)CC2)[nH]c2ccc(C(F)(F)F)cc12 (stereo not drawn) yielded a melting point of 204 to 217 °C.
O=C(CCN1CCN(c2ccccc2)CC1)c1ccc2c(c1)Cc1cc(C(=O)CCN3CCN(c4ccccc4)CC3)ccc1O2 gave a melting point of 206 to 208 °C.
Compound CC#CCOc1ccc(S(=O)(=O)N[C@H]2CCCC[C@H]2C(=O)NO)cc1 has a melting point of 140 to 145 °C.
Compound CNc1ccc(C(=O)NCCC(=O)O)cc1[N+](=O)[O-] has a melting point of 187 to 190 °C.
With CCN1CCCC1CNC(=O)c1cc(-n2cnnn2)ccc1OC (stereo not drawn) the melting point was 171 to 174 °C.
For CCCCOc1c(C(=O)O)n(CC2CC2)c(=O)c2ccc(Br)cc12, the melting point was 166 to 167 °C.
In the case of O=C(CCc1ccccc1)CN1C(=O)CC1S(=O)Cc1ccccc1 (stereo not drawn), the melting point is reported as 110 to 111 °C.
For CCOCOc1cccc(C(CC#N)N2Cc3c(Cl)ccc(NC(=O)C4CC4)c3C2=O)c1 (stereo not drawn), the melting point was 200 to 202 °C.
With CCOC(=O)c1c(Cn2cncn2)nc2cc(OC)c(OC)cc2c1-c1ccc(OC)cc1 the melting point was 150 to 151 °C.
Cn1cnc(C(=O)N2CCC(NC(=O)Nc3ccc(C(F)(F)F)cc3)CC2)c1 gave a melting point of 222 to 226 °C.
CCOC(=O)CCC(=O)c1ccc(CCNS(=O)(=O)c2cccc(Cl)c2)cc1 gave a melting point of 64 to 66 °C.
COCCOCc1c(CN(C)C[C@@H](O)c2ccco2)sc2c(=O)c(C(=O)NCc3ccc(Cl)cc3)cn(C)c12 showed a melting point of 146 to 147 °C.
CC(C)(C)C1(c2ccc(C(=O)O)cc2)OCCO1 gave a melting point of 214 to 216 °C.
Work on CC(C)(C)CNc1cc(N2CCNCC2)nc(N2CCCC2)n1 yielded a melting point of 140 to 145 °C.
For COc1ccccc1NC(=O)c1ccccc1CN1C(=O)C2(COc3cc4c(cc32)CCO4)c2ccccc21 (stereo not drawn), the melting point was 172 to 174 °C.
Cc1cccc(NC(=O)NCC(=O)N2[C@@H](C(=O)OC(C)(C)C)CC[C@H]2c2ccccc2)c1 (racemic) showed a melting point of 156 °C.
Compound COC(=O)[C@H](O)[C@@H](NC(=O)OC(C)(C)C)c1ccc(N(C)C)cc1 has a melting point of 120 °C.
In the case of Brc1cc(N2CCOCC2)ccc1/C=C/c1cc(/C=C/c2ccc3cc[nH]c3c2)[nH]n1, the melting point is reported as 143 to 148 °C.
For CCOC(=Cc1ccc(-c2cccc(N(C)C(=O)NC3CCCCC3)c2)cc1)C(=O)O, the melting point was 85 °C.
O=C(O)Cc1c(C(=O)c2ccc(Cl)cc2)[nH]c2cc(C(F)(F)F)ccc12 gave a melting point of 155 to 160 °C.
For O=c1nc(-c2ccccc2)c2cc(Cl)sc2n1CC1CC1, the melting point was 149 to 151 °C.
Compound CCOC(=O)c1c(CBr)nc2cc(OC)c(OC)cc2c1-c1ccc(OC)c(OC)c1 has a melting point of 135 to 136 °C.
Compound CCOC(=O)c1ccc(-c2coc(-c3ccc(Cl)cc3)n2)cc1 has a melting point of 153 to 154 °C.
Work on O=C1C(Cl)=C(C2CCCCC2)C(=O)c2ccccc21 yielded a melting point of 150 to 151 °C.
For Cc1nc2ccc3c(c2o1)OC(CN1C2CCC1CC(O)(c1ccc4ccccc4c1)C2)CO3 (stereo not drawn), the melting point was 192 to 195 °C.
Compound COC(=O)c1ccc2c(c1)C(Oc1ccccn1)C(O)C(C)(C)O2 (stereo not drawn) has a melting point of 202 to 204 °C.
For COc1cccc2c1Sc1ccc(Cl)cc1C2, the melting point was 95 to 96 °C.
Compound CC1(C)CS(=O)(=O)CC(C)(C)N1N=O has a melting point of 184 °C.
CC1(C)COc2ccc(C#N)cc21 gave a melting point of 70 to 71 °C.
Cc1cc(C#CC2CC2)cc(C)c1Oc1ccc(N)c(Nc2ccc(C#N)cc2)n1 showed a melting point of 82 to 85 °C.
Cn1nnnc1-c1ccccc1S(N)(=O)=O gave a melting point of 176 to 179 °C.
O=c1c2ccccc2nc(-c2sc(Nc3ccccc3)nc2-c2ccccc2)n1-c1ccc(Cl)cc1 showed a melting point of 218 to 222 °C.
In the case of CC(C)NC(=O)OCC(=O)c1ccc(Oc2ccccc2)cc1, the melting point is reported as 89 to 90 °C.
Work on CCCCOc1c(-c2ccc(S(C)(=O)=O)cc2)cnn(-c2ccc(F)c(F)c2)c1=O yielded a melting point of 129 to 132 °C.
CNC(=O)C(CC(=O)N(CC(=O)NO)CC(C)C)CC(C)C (stereo not drawn) gave a melting point of 60.5 to 61.5 °C.
For CCCCCC(=O)Nc1ccc2ccn(CCCCCCC(=O)NS(=O)(=O)c3ccccc3)c2c1, the melting point was 97 to 99 °C.
COc1cc(-n2cnc(C)c2C)cc2oc(=O)c(C)c(C)c12 gave a melting point of 196 to 198 °C.
Work on CCOC(=O)c1cc2c(O)nncc2nc1Nc1ccccc1 yielded a melting point of 257 to 260 °C.
With Cc1cc(F)ccc1C(=O)CCCN1CCC(O)(c2cccc(C(F)(F)F)c2)CC1 the melting point was 63.5 °C.
For CN1CCC(CC(=O)N2c3ccccc3C(=O)Nc3cccc(Cl)c32)CC1, the melting point was 112 °C.
